Data published in patent US7704508B2, “Babesia subtilisin” (New York Blood Center, priority 2007, dated 2010).
Starred links: 1 amine or outer side, 2 acyl side, 3 side chain; linkers in the order of their positions; H or OH if unused. Non-standard residues stand in square brackets, D forms with d. Residues, ends and D or L forms follow the SMILES beside them. ξ: configuration not given here. *: point of attachment. Sta = CC(C)C[C@H](N)[C@@H](O)CC(=O)O; Isovaleryl = CC(C)CC(=O)*; ξF = NC(Cc1ccccc1)C(=O)O; CO = O=C([*:1])[*:2]

Tests used:
B. divergens [1] = assay: Effect of protease inhibitors on B. divergens erythrocyte invasion (parasitemia by YOYO-1 flow cytometry, T10); assay type: cell-based; settings: for inhibition of invasion: 50 and 100 μM, relative to control; for inhibition at 50 µM / inhibition at 100 µM: Erythrocyte
Description: (§1) Parasitemia for B. divergens was assessed in human RBCs using a modification of the methods of Barkan et al. (Int. J. Parasitol. 30:649-53, 2000) and Jimenez-Diaz et al. (Cytometry A 67:27-36, 2005), both of which are incorporated by reference herein for all they contain regarding assessment of parasitemia. DNA content was measured after staining with YOYO-1 (a high affinity cell-impermeant dye that increases green fluorescence by 1000-fold when bound to dsDNA) observed infected erythrocytes compared with non-infected human erythrocytes for B. divergens.
(§2) To assess the effect of various protease inhibitors, parasitemia was assessed in 180 parasite samples taken at different time points (0 and after 10, 24, 48 and 72 h). In parallel with the evaluation of the parasitemia by FACS (fluorescence activated cell sorting), 60 random parasite samples were analyzed by light microscopy using Giemsa-stained thin blood smears, with 500-1000 RBCs being counted for each smear. […] Integration of the numbers of events represented in the right peak provides a direct estimate of the parasitemia, where one infected cell is one event.
(§3) Protease inhibitors were tested for their ability to inhibit the invasion and growth of B. divergens in vitro.
(§4) The effects of EGTA, a chelating agent capable of binding metal ions including Ca^2+, on the invasion and growth of B. divergens was tested. EGTA cannot permeate the biological membrane of cells so its effects are only on the chelation of extracellular ions. As many serine proteases require Ca^2+ for activity, EGTA also functions as a serine protease inhibitor.

B. divergens [2] = assay: Effect of protease inhibitors on B. divergens growth in culture (parasitemia by YOYO-1 flow cytometry, T72); assay type: cell-based; settings: for inhibition of growth / decrease of parasitemia after 72 h: 50 and 100 μM, compared to control; for Growth T72 50 μM (inhibition) / Growth T72 100 μM (inhibition) / inhibition at 50 µM / inhibition at 100 µM: T72
Description: as §1, §2, §3, §4

BdSUB-1 = assay: Effect of brefeldin A on BdSUB-1 processing during secretory transport (western blot); assay type: cell-based, B. divergens; settings: 40 μg/ml BFA in methanol, 1 hour, 37° C., western blot with PfSUB1m antibodies
Description: Monitoring the effect of brefeldin A. The effects of brefeldin A (BFA, Sigma) on BdSUB-1 processing during secretory transport was monitored using ^35S-radiolabeled B. divergens cultures. The drug was prepared as a stock solution in methanol at 1 mg ml^−1 and then added to parasite cultures to a final concentration of 40 μg ml^−1 BFA. Methanol was added to the control cultures and cells were cultured at 37° C. in a […], 5% nitrogen and 5% oxygen for 1 hour. Samples were washed in PBS, lysed in saponin buffer and analyzed by western blot using the anti-PfSUB1m antibodies.
BdSUB-1 undergoes post-translational processing during secretory transport. […] In order to examine whether BdSUB-1 undergoes intracellular post-translational processing steps within the parasite secretory pathway, brefeldin A (BFA) was employed, which blocks secretory transport of proteins from the endoplasmic reticulum (ER) to the Golgi apparatus. Western-blot analysis was performed on parasite lysates that were obtained from cultures grown in the presence or absence of BFA, using anti-PfSUB1m antibodies. […] Thus, BdSUB-1 is initially synthesized as a large precursor protein of ˜78 kDA and cleavage of the signal peptide results in the formation of p75, which is the largest detectable protein seen in the assays. This p75 is then processed to p55, which then gets converted to p48 in the Golgi. […]

O=c1oc(Cl)c(Cl)c2ccccc12 [3,4 DCI]
Invasion T10 50 μM (inhibition) (B. divergens [1]; T10): 38.0 ± 2.0% | Invasion T10 100 μM (inhibition) (B. divergens [1]; T10): 43.0 ± 1.2% | inhibition of invasion (B. divergens [1]): 40% | Growth T72 50 μM (inhibition) (B. divergens [2]): 70.7 ± 1.4% | Growth T72 100 μM (inhibition) (B. divergens [2]): 76.0 ± 2.3% | inhibition of growth / decrease of parasitemia after 72 h (B. divergens [2]): 76%

Cc1ccc(S(=O)(=O)N[C@@H](CCCCN)C(=O)CCl)cc1 [TLCK, N-α-tosyl-L-lysine chloromethyl ketone]
Invasion T10 50 μM (inhibition) (B. divergens [1]; T10): 64.0 ± 3.1% | Invasion T10 100 μM (inhibition) (B. divergens [1]; T10): 60.0 ± 2.0% | inhibition of invasion (B. divergens [1]): ~60% | Growth T72 50 μM (inhibition) (B. divergens [2]): 92.1 ± 3.0% | Growth T72 100 μM (inhibition) (B. divergens [2]): 94.1 ± 0.9% | inhibition of growth / decrease of parasitemia after 72 h (B. divergens [2]): approximately 90% | morphology of the parasites during invasion and growth inhibition assay (B. divergens [2]; microscopy of treated cultures): no alteration in the morphology of the parasites

O=C(O)CN(CCOCCOCCN(CC(=O)O)CC(=O)O)CC(=O)O [EGTA, ethylene glycol tetraacetic acid]
Invasion T10 1 mM (inhibition) (B. divergens [1]; 1 mM, T10): 48.0 ± 3.1% | Invasion T10 3 mM (inhibition) (B. divergens [1]; 3 mM, T10): 52.0 ± 2.6% | reversal of inhibition of invasion and growth by Ca2+ (B. divergens [1]; Ca2+ added in the same concentration as EGTA): completely reversed | percentage of inhibition on invasion (B. divergens [1]; EGTA 1, 2 and 3 mM): 50% | Growth T72 1 mM (inhibition) (B. divergens [2]): 82.0 ± 0.4% | Growth T72 3 mM (inhibition) (B. divergens [2]): 83.0 ± 0.5% | growth of the parasite after 72 h, lower than the control (B. divergens [2]): 83%

NCCc1ccc(S(=O)(=O)F)cc1 [ABSF, 4-(2-aminoethyl)benzenesulfonyl fluoride]
Invasion T10 50 μM (inhibition) (B. divergens [1]; T10): 3.3 ± 6.8% | Invasion T10 100 μM (inhibition) (B. divergens [1]; T10): 34.0 ± 9.0% | Growth T72 50 μM (inhibition) (B. divergens [2]): 8.8 ± 7.4% | Growth T72 100 μM (inhibition) (B. divergens [2]): 28.0 ± 5.0%

CC(C)CC(=O)N[C@H](C(=O)N[C@H](C(=O)N[C@@H](CC(C)C)[C@@H](O)CC(=O)N[C@@H](C)C(=O)N[C@@H](CC(C)C)[C@@H](O)CC(=O)O)C(C)C)C(C)C [Pepstatin, pepstatin] (Isovaleryl-VV[Sta]A[Sta]-OH)
inhibition at 50 µM (B. divergens [1]; T10): 17 ± 6.4% | inhibition at 100 µM (B. divergens [1]; T10): 2 ± 0.8% | inhibition at 50 µM (B. divergens [2]): 9.1 ± 3.1% | inhibition at 100 µM (B. divergens [2]): 16 ± 9.2%

C[C@H]1CCC/C=C/[C@@H]2C[C@H](O)C[C@H]2[C@H](O)/C=C/C(=O)O1 [BFA, brefeldin A]
BdSUB-1 processing / secretory transport (BdSUB-1): blocked the secretory transport of BdSUB-1 from the ER to the Golgi apparatus

CC(C)[C@H](NC(=O)[C@H](CCCNC(=N)N)NC(=O)NC(Cc1ccccc1)C(=O)O)C(=O)N[C@H](C=O)CCCNC(=N)N (stereo partly drawn) [Antipain, (1-carboxy-2-phenylethyl)carbamoyl-L-arginyl-L-valylargininal] ({ξF-CO}-Arg-Val-Arg-aldehyde)
inhibition at 50 µM (B. divergens [1]; T10): 33 ± 6.5% | inhibition at 100 µM (B. divergens [1]; T10): 37.7 ± 14.1% | inhibition at 50 µM (B. divergens [2]): 15 ± 8.4% | inhibition at 100 µM (B. divergens [2]): 16 ± 8.5%

O=S(=O)(F)Cc1ccccc1 [PMSF, phenylmethylsulfonyl fluoride]
Invasion T10 50 μM (inhibition) (B. divergens [1]; T10): 28.0 ± 8.9% | Invasion T10 100 μM (inhibition) (B. divergens [1]; T10): 35.0 ± 18.0% | Growth T72 50 μM (inhibition) (B. divergens [2]): 45.0 ± 5.2% | Growth T72 100 μM (inhibition) (B. divergens [2]): 46.7 ± 3.3%
